From patent US11981702B2, “Compounds for fluorescence sensing of duplex formation” (San Diego State University Research Foundation, priority 2016, dated 2024)
Like-named read-outs stand apart in the source and are kept apart here. [8-DEA-tC] = 8-diethylamino tricyclic cytidine analogue (fluorescent), on 2'-deoxyribose

Experiments:
[1] = UV/Vis absorption and steady state emission spectra; type: physicochemical; conditions: for ds λmax,abs / ds λmax,em: double-stranded; for ds λmax,abs / ds λmax,em / λmax,abs (ss) / λmax,em (ss): 1x PBS buffer pH 7.4; for λmax,abs (ss) / λmax,em (ss): single-stranded
Procedure: (§1) All photophysical experiments were measured in a quartz sub-micro cuvette (10 mm path length) purchased from Starnacell Inc. Solutions were prepared in 1×PBS buffer at pH 7.4. Steady state emission scans were recorded using a PTI QuantaMaster QM-400 and absorbances were measured on a Shimadzu UV-1700 Pharmaspec spectrometer. Quantum yield measurements were performed the comparative method of Williams et. al. and measured in duplicate, at minimum.[7] Quinine sulfate in 0.1M H2SO4 was used as a reference standard for all photophysical measurements. Measurements by using a commercial sample of pyrrolo-dC to obtain a fluorescence quantum yield of 0.046, matching the value of 0.05 as reported by the Tor group were validated.[8] All measurements were taken with an absorbance range of 0.01-0.1. Subsequent dilutions were performed stepwise in order to obtain a minimum of five absorbance and emission spectra for quantum yield determinations. Representative data from these quantum yield measurements is plotted below. Quantum yield determinations were obtained using the following equation: […]
Normalized absorption and emission plots of single-stranded oligonucleotides and double-stranded oligonucleotides in 1×PBS buffer at pH 7.4 were determined accordingly.

complementary strand [2] = experiment: CD melting temperature of oligonucleotide duplexes (ellipticity at 255 nm); type: physicochemical; conditions: for ΔTm: Tm for natural DNA duplex subtracted from Tm for the 8-DEA-tC-containing duplex; for Tm: duplex 5 μM in PBS pH 7.4
Procedure: UV CD spectra of oligonucleotide duplexes at a concentration of 5 μM in phosphate buffered saline (10 mM sodium phosphate, pH 7.4, […] potassium chloride, 137 mM sodium chloride) were collected at 25° C. in a 1 cm path length cell on an Aviv model 420 spectrophotometer equipped with a Peltier temperature controller. Background-subtracted spectra were smoothed and normalized to concentration using A260 nm as calculated from detector voltage using the following equation and converted to standard units. […] 255 nm was monitored from 15° C. to 75° C. at 1° C. increments. The TM of each duplex was calculated by fitting the raw data to a two-state model in Igor Pro. Melting curves are reported as fraction unfolded.

complementary strand [3] = experiment: Quantum yield of fluorescence emission of double-stranded oligonucleotides after adding complementary strand; type: physicochemical; conditions: for ds Φem: double-stranded oligonucleotide, 1x PBS buffer pH 7.4; for increase in fluorescent quantum yield in duplex DNA as compared with the free nucleoside: matched duplex, depending on neighboring bases
Procedure: (§2) Quantum yields of fluorescence emission were determined using the comparative method of Williams et. al. (Analyst 1983, 108, 1067) and a fluorescence standard of quinine sulfate in 0.1M H2SO4 (Table 1 and FIG. 2). The single-stranded oligonucleotides have quantum yields of fluorescence emission ranging from Φem=0.01-0.03, all brighter than the free 8-DEA-tC nucleoside by up to a factor of five. Addition of the complementary sequences and duplex formation results in further fluorescence increase in all sequences, up to Φem=0.12 for sequence GC. This quantum yield is 20-fold greater than that of the free 8-DEA-tC nucleoside, the largest such increase reported to date for a fluorescent nucleoside analogue.
as §1
Samples of double-stranded oligonucleotides were prepared using a known concentration of single-stranded oligonucleotide and adding a total of 2.4 equivalents of complementary strand at room temperature. A single-strand absorbance and emission were taken prior to the addition of the first 1.2 equivalents of complementary strand for purposes of single-strand calculation and verification of hybridization. An additional 1.2 equivalent is added after the first double-strand to ensure that complete hybridization was achieved. Thermal annealing procedures had no effect on the measurements as expected, given that these sequences were chosen to have no competing, stable secondary structures.

DNA-RNA heteroduplex = experiment: Fluorescence turn-on response in DNA-RNA heteroduplex; type: physicochemical; conditions: 1x PBS buffer at pH 7.4
Excerpt: The RNA version (Y═OH) has been synthesized and characterized. […] The shape (conformation) of double-stranded nucleic acids can vary, and there are three major forms: A, B, and Z. Double-stranded DNA is naturally B form. Double-stranded RNA is naturally A form. And a DNA-RNA heteroduplex also naturally takes A form. For that reason, it is possible to use a DNA-RNA heteroduplex to predict fluorescence properties in pure RNA.

[4] = Quantum yield of fluorescence emission, comparative method of Williams et al., quinine sulfate standard (free nucleosides, single-stranded oligonucleotides); type: physicochemical; conditions: for ss Φem: single-stranded oligonucleotide, 1x PBS buffer pH 7.4
Procedure: as §2, §1
The determination of quantum yields for single-stranded oligonucleotides containing 8-DEA tC were calculated using the integrated emission intensity measurements of the single strand prior to the addition of the complementary strand, with the following equation. This method was validated by comparison with and confirmed with a SS quantum yield experiment.

[5] = as above; type: physicochemical; conditions: free nucleoside, 1,4-dioxane
[6] = Viscosity sensitivity of fluorescence in methanol-glycerol mixtures; type: physicochemical; conditions: 25° C.
Excerpt: It was hypothesized that the C—N bond appending the diethylamino group to tC may provide a molecular rotor effect, enabling non-emissive relaxation coupled to conformational change at the excited state. […] For this reason, it was hypothesized that slowed water dynamics in the major groove of the duplex could cause an increase in the fluorescence of 8-DEA-tC. To test this hypothesis, a comparison of the solvent viscosity sensitivity of fluorescence of the 8-DEA-tC nucleoside with parent tC and 9-(2,2-dicyanovinyl)julolidine (DCVJ, a frequently used reference compound for viscosity effects on fluorescence) using mixtures of glycerol and methanol was performed (see Examples section below).
The responsiveness of (8-DEA)tC, tC, and 9-(2,2-dicyanovinyl)julolidine (DCVJ) to viscosity changes using binary methanol-glycerol mixtures was determined.
Molecular rotors are known to have fluorescent properties that are dependent on the medium viscosity, the fluorescence spectra of parent tC and (8-DEA)tC were examined in methanol-glycerol mixtures ranging from 0 to 100% methanol in glycerol at 25° C. […]
A calibration plot of fluorescence intensity (I) versus viscosity (η) were constructed using the Foster-Hoffman equation ΦF=zη^α, relating the fluorescence quantum yield (ΦF) as a function of viscosity (η) and fluorophore and solvent-specific constants (z, α).

[7] = UV/Vis absorption and steady state emission spectra; type: physicochemical; conditions: free nucleoside, 1,4-dioxane
[8] = Stern-Volmer analysis of chloride quenching; type: physicochemical; conditions: 0 mM to 180 mM NaCl
Procedure: To test the ability of the duplex to attenuate chloride quenching of 8-DEA-tC, a Stern-Volmer analysis was performed using the 8-DEA-tC nucleoside and the TT duplex oligonucleotide (see Examples section below). […] In contrast, chloride has a modest quenching effect on 8-DEA-tC when present in the matched TT duplex.
In order to assess the magnitude that chloride, present in our buffers, would quench the fluorescent cytidine analogues, a Stern-Volmer analysis was performed spanning from 0 mM NaCl to 180 mM NaCl to mimic the environment of the 1XPBS buffer used in the fluorescence measurements of the oligomers.
A solution fluorophore was prepared and a known volumes of a 0.5 M NaCl solution were titrated in and the resulting fluorescence change was measured. The dilution factor was taken into account when calculating integrated fluorescence intensity.

[9] = value reported by the Tor group; cited from earlier work
matching complement = experiment: Visual discrimination of single nucleotide mismatch under hand-held UV lamp; type: physicochemical; conditions: 0.26 mM in 0.5X PBS buffer, versus oligo alone and mismatch duplex
Procedure: Next, the ability of 8-DEA-tC to distinguish single nucleotide by a visible fluorescence response was tested (FIG. 5). 0.26 mM solutions of GC oligo in 0.5X PBS buffer were prepared with the GC oligo alone, a duplex with the matching complement, and a duplex with an 8-DEA-tC mismatch.

Row | Molecule | ds λmax,abs [1] [nm] | ds λmax,em [1] | λmax,abs (ss) [1] [nm] | λmax,em (ss) [1] | ΔTm (complementary strand [2]) | Tm (complementary strand [2]) [°C] | ds Φem (complementary strand [3]) | ss Φem [4] | other results
1 | AA: 5′-CGC-AAX-ATC-G-3′ (SEQ ID NO: 18), X = 8-DEA-tC (DNA CGCAACATCG; DNA, [8-DEA-tC] at 6, backbone not given here) | 410 | 498 nm | 415 | 497 nm | -2.6 °C | 48.4 | 0.042 | 0.008 | fluorescence turn-on effect in DNA-RNA heteroduplex relative to double-stranded DNA (DNA-RNA heteroduplex): at least three times better
2 | GG: 5′-CGC-AGX-GTC-G-3′ (SEQ ID NO: 14), X = 8-DEA-tC (DNA CGCAGCGTCG; DNA, [8-DEA-tC] at 6, backbone not given here) | 400 | 499 nm | 415 | 498 nm | -7.0 °C | 58.2 | 0.056 | 0.027 | 
3 | GA: 5′-CGC-AGX-ATC-G-3′ (SEQ ID NO: 10), X = 8-DEA-tC (DNA CGCAGCATCG; DNA, [8-DEA-tC] at 6, backbone not given here) | 422 | 499(499) nm | 425 | 499(499) nm | -5.1 °C | 50.7 | 0.050 | 0.020 | 
4 | CCN(CC)c1ccc2c(c1)Nc1nc(=O)n([C@H]3CC(O)[C@@H](CO)O3)cc1S2 (stereo partly drawn) [8-DEA-tC, 8-Diethylamino-tricyclic-2′-deoxy-β-D-ribonucleoside] |  |  |  |  |  |  |  |  | ε ([1]; free nucleoside, 1x PBS buffer): 2700 M⁻¹ cm⁻¹; λmax,abs ([1]; free nucleoside, 1x PBS buffer): 395 nm; λmax,em ([1]; free nucleoside, 1x PBS buffer): 493 nm; increase in Φem when mispaired with A (complementary strand [3]; 8-DEA-tC opposite A in duplex): less than 2 fold; Φem opposite an abasic site (complementary strand [3]; 8-DEA-tC opposite abasic site (dSpacer) in duplex): effectively the same as for the free nucleoside; increase in fluorescent quantum yield in duplex DNA as compared with the free nucleoside (complementary strand [3]): ≤ 20 fold; Φem [5]: 0.06; response of fluorescence intensity to viscosity [6]: positively correlated to viscosity; λmax,abs [7]: 389 nm; λmax,em [7]: 524 nm; effect of chloride on fluorescence [8]: more fluorescent with increasing chloride concentration; sensitivity to quenching by protic solvent relative to parent tC [4]: approximately twice as sensitive; Φem in deuterated buffer ([4]; deuterated 1X PBS buffer): 0.012; Φem ([4]; free nucleoside, 1x PBS buffer): 0.006; increase of Φem on solvent change ([4]; free nucleoside, 1x PBS buffer to 1,4-dioxane): 10 fold
5 | Cc1cc2cn([C@H]3C[C@H](O)[C@@H](CO)O3)c(=O)nc2[nH]1 [pyrrolo-dC, reference compound] |  |  |  |  |  |  |  |  | fluorescence quantum yield [9]: 0.05; fluorescence quantum yield ([4]; commercial sample, method validation): 0.046
6 | TA: 5′-CGC-ATX-ATC-G-3′ (SEQ ID NO: 16), X = 8-DEA-tC (DNA CGCATCATCG; DNA, [8-DEA-tC] at 6, backbone not given here) | 420 | 495 (495) nm | 417 | 495 (495) nm | -1.6 °C | 48.7 | 0.026 | 0.014 | 
7 | N#CC(C#N)=Cc1cc2c3c(c1)CCCN3CCC2 [DCVJ, 9-(2,2-dicyanovinyl)julolidine, reference compound] |  |  |  |  |  |  |  |  | response of fluorescence intensity to viscosity [6]: three-fold greater
8 | CA: 5′-CGC-ACX-ATC-G-3′ (SEQ ID NO: 13), X = 8-DEA-tC (DNA CGCACCATCG; DNA, [8-DEA-tC] at 6, backbone not given here) | 410 | 494 nm | 420 | 493 nm | +2.1 °C | 57.4 | 0.017 | 0.014 | 
9 | GC: 5′-CGC-AGX-CTC-G-3′ (SEQ ID NO: 12), X = 8-DEA-tC (DNA CGCAGCCTCG; DNA, [8-DEA-tC] at 6, backbone not given here) | 348 | 500 nm | 425 | 499 nm | -14.5 °C | 49.1 | 0.12 | 0.032 | increase in fluorescent quantum yield in duplex DNA as compared with the free nucleoside (complementary strand [3]): 20 fold; visible fluorescence response of matched duplex (matching complement): large increase in fluorescence
10 | CC: 5′-CGC-ACX-CTC-G-3′ (SEQ ID NO: 15), X = 8-DEA-tC (DNA CGCACCCTCG; DNA, [8-DEA-tC] at 6, backbone not given here) | 413 | 496 (496) nm | 421 | 496 (496) nm | +6.7 °C | 60.2 | 0.024 | 0.013 | 
